We go through 9 compounds from ChEMBL document CHEMBL1143511, “Antitubercular agents. Part 1: synthesis of phthalimido- and naphthalimido-linked phenazines as new prototype antitubercular agents” (2005).

The MIC is the lowest concentration found to suppress growth. Higher therefore signals weaker potency.

Type in all cases: functional
In assay [1] the test system is Mycobacterium tuberculosis. The experiment in a line: Minimum inhibitory concentration tested against Mycobacterium tuberculosis resistant clinical isolates; Range:1-4 ug/ml.
Assay [2] has as its system Mycobacterium tuberculosis. As to the kind of experiment: Minimum inhibitory concentration tested against Mycobacterium tuberculosis resistant clinical isolates.
Assay [3] concerns Mycobacterium tuberculosis. The experiment in a line: Minimum inhibitory concentration tested against Mycobacterium tuberculosis resistant clinical isolates; Range 8->16 ug/mL.
The subject of assay [4] is Mycobacterium tuberculosis. As to the kind of experiment: Minimum inhibitory concentration tested against Mycobacterium tuberculosis resistant clinical isolates; Range 8-16 ug/mL.

Each structure is given as a SMILES string. Values after ≈ are worked out from the molar mass of the structure shown. Some results are limits rather than exact numbers.

In assay [1], `O=C1c2ccccc2C(=O)N1CCCCCN1CCN(CC/N=c2/cc3n(-c4ccc(Cl)cc4)c4ccccc4nc-3cc2Nc2ccc(Cl)cc2)CC1` came in with an MIC of 4 mg/L (≈ 5.27 µM).

In turn, `O=C1c2cccc3cccc(c23)C(=O)N1CCCCCN1CCN(CC/N=c2/cc3n(-c4ccc(Cl)cc4)c4ccccc4nc-3cc2Nc2ccc(Cl)cc2)CC1` returned an MIC in assay [2] of over 16 mg/L. For the compound `O=C1c2ccccc2C(=O)N1CCCCCCN1CCN(CC/N=c2/cc3n(-c4ccc(Cl)cc4)c4ccccc4nc-3cc2Nc2ccc(Cl)cc2)CC1`, in assay [1], the MIC turned out to be 4 mg/L (≈ 5.18 µM). Regarding `O=C1c2cccc3cccc(c23)C(=O)N1CCCN1CCN(CC/N=c2/cc3n(-c4ccc(Cl)cc4)c4ccccc4nc-3cc2Nc2ccc(Cl)cc2)CC1`, the MIC in assay [2] is over 16 mg/L. Still for that read-out and setting: next, `O=C1c2ccccc2C(=O)N1CCCCN1CCN(CC/N=c2/cc3n(-c4ccc(Cl)cc4)c4ccccc4nc-3cc2Nc2ccc(Cl)cc2)CC1`: over 16 mg/L. In turn, `O=C1c2ccccc2C(=O)N1CCCN1CCN(CC/N=c2/cc3n(-c4ccc(Cl)cc4)c4ccccc4nc-3cc2Nc2ccc(Cl)cc2)CC1` yielded an MIC in assay [2] of over 16 mg/L. On to `NNC(=O)c1ccncc1` [ISONIAZID], for which the MIC in assay [3] is over 16 mg/L. `O=C1c2cccc3cccc(c23)C(=O)N1CCCCN1CCN(CC/N=c2/cc3n(-c4ccc(Cl)cc4)c4ccccc4nc-3cc2Nc2ccc(Cl)cc2)CC1` displayed an MIC in assay [2] of over 16 mg/L. `O=C1c2cccc3cccc(c23)C(=O)N1CCCCCCN1CCN(CC/N=c2/cc3n(-c4ccc(Cl)cc4)c4ccccc4nc-3cc2Nc2ccc(Cl)cc2)CC1` gave an MIC in assay [4] of 16 mg/L (≈ 19.4 µM).
